These results are taken from the Kinase Knowledgebase extract (Sharma et al. 2016).

The target of assay [1] is EGFR (human) (UniProt P00533).
For assay [2], the target named is EGFR (human) (UniProt P00533). The settings on record: a431.

Usually IC50 stands for the midpoint of a concentration-inhibition curve. A higher IC50 goes with a need for much substance.

Sequence of EGFR (human) (P00533 whole entry, looked up): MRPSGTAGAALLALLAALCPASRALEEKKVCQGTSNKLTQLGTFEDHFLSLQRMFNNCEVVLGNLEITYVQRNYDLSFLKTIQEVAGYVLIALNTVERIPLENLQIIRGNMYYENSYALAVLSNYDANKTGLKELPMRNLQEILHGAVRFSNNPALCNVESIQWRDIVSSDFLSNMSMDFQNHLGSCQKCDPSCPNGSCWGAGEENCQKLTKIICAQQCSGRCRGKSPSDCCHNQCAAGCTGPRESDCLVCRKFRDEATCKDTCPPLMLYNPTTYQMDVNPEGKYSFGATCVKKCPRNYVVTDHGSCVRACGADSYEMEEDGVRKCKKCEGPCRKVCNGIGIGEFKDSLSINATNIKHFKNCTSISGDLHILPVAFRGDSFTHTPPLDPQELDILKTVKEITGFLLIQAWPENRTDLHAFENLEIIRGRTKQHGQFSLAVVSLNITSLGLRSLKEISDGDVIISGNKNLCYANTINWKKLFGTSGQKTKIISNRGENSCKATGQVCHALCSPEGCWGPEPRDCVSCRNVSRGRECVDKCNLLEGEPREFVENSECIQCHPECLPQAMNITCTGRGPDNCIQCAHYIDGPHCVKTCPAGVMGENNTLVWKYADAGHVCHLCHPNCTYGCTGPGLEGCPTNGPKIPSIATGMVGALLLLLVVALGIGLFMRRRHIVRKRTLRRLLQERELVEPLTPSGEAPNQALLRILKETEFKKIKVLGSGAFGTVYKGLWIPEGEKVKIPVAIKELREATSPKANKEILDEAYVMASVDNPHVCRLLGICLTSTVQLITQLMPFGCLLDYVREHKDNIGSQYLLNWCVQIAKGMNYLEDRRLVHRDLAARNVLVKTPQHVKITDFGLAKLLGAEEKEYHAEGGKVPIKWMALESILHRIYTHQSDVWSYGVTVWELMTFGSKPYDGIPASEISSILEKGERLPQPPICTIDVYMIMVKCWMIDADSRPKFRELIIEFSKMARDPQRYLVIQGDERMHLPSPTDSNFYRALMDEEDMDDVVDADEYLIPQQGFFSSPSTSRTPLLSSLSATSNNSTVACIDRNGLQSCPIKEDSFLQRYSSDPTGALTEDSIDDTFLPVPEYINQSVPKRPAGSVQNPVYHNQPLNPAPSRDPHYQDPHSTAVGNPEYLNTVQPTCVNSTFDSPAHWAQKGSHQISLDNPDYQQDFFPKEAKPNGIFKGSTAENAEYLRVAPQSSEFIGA

`O[C@H](CN1CCC[C@@H]1CN1CCCC1)Cn1ccc(-c2ccc3ncnc(Nc4ccc(OCc5cccc(F)c5)c(Cl)c4)c3c2)c1`: the figures for the IC50 on EGFR (human) [1] and against EGFR (human) [2] were 95 nM and 746 nM, respectively.

As for `O[C@H](CN1CCOCC1)Cn1ccc(-c2ccc3ncnc(Nc4ccc5c(cnn5Cc5cccc(F)c5)c4)c3c2)c1`, the IC50 is 19 nM at EGFR (human) [1] and 749 nM at EGFR (human) [2].

Take `O=S1(=O)CCC(NCCn2ccc(-c3ccc4ncnc(Nc5ccc(OCc6cccc(F)c6)c(Cl)c5)c4c3)c2)CC1`: the values for the IC50 against EGFR (human) [1] and on EGFR (human) [2] were 492 nM and 1420 nM, respectively.

With `O[C@H](CN1CCOCC1)Cn1ccc(-c2ccc3ncnc(Nc4ccc(OCc5cccc(F)c5)c(Cl)c4)c3c2)c1`, the figures for the IC50 against EGFR (human) [1] and on EGFR (human) [2] were 18 nM and 511 nM, respectively.

As for `OC(CNC1CC1)Cn1ccc(-c2ccc3ncnc(Nc4ccc5c(cnn5Cc5cccc(F)c5)c4)c3c2)c1` (centres undefined), the IC50 against EGFR (human) [1] was determined as 12 nM; against EGFR (human) [2] it was 356 nM.

Regarding `CN1CCN(Cc2cn(-c3ccc4ncnc(Nc5ccc(OCc6ccccn6)c(Cl)c5)c4c3)cc2CCO)CC1`, the IC50 at EGFR (human) [1] worked out at 26 nM; against EGFR (human) [2] it was 210 nM.

On to `Clc1cc(Nc2ncnc3ccc(-n4cccc4)cc23)ccc1OCc1ccccn1`, for which the results for the IC50 at EGFR (human) [1] and at EGFR (human) [2] were 6 nM and 10 nM, respectively.

As for `O=C(c1cn(-c2ccc3ncnc(Nc4ccc(OCc5cccc(F)c5)c(Cl)c4)c3c2)cc1CCO)N1CCOCC1`, the half-maximal inhibitory concentration (IC50) against EGFR (human) [1] came out at 8 nM; on EGFR (human) [2], 160 nM.

With `CS(=O)(=O)CCOCC(O)Cn1ccc(-c2ccc3ncnc(Nc4ccc(OCc5cccc(F)c5)c(Cl)c4)c3c2)c1` (centres undefined), the IC50 was found to be 38 nM on EGFR (human) [1] and 615 nM against EGFR (human) [2].

On to `O=S1(=O)CCC(O)(CNCc2cc(-c3ccc4ncnc(Nc5ccc6c(cnn6Cc6cccc(F)c6)c5)c4c3)c[nH]2)CC1`, for which the IC50 against EGFR (human) [1] was 6 nM; against EGFR (human) [2] it was 2870 nM.

Consider `OCCc1cn(-c2ccc3ncnc(Nc4ccc(OCc5cccc(F)c5)c(Cl)c4)c3c2)cc1CN1CCOCC1`, for which the IC50 amounted to 4 nM against EGFR (human) [1] and 210 nM against EGFR (human) [2].

With `Fc1cccc(COc2ccc(Nc3ncnc4ccc(-c5ccn(CCNC6CC6)c5)cc34)cc2Cl)c1`, the IC50 against EGFR (human) [1] was 239 nM; at EGFR (human) [2], 747 nM.

Consider `Fc1cccc(COc2ccc(Nc3ncnc4ccc(-c5ccn(CCCN6CCCCC6)c5)cc34)cc2Cl)c1`, for which the IC50 was 9 nM against EGFR (human) [1] and 1980 nM against EGFR (human) [2].

On to `O=C(Cn1ccc(-c2ccc3ncnc(Nc4ccc(OCc5cccc(F)c5)c(Cl)c4)c3c2)c1)NCC1(O)CCS(=O)(=O)CC1`, for which the figures for the IC50 against EGFR (human) [1] and on EGFR (human) [2] were 17 nM and 1550 nM, respectively.

As to `Fc1cccc(COc2ccc(Nc3ncnc4ccc(-c5ccn(Cc6ccncc6)c5)cc34)cc2Cl)c1`, the IC50 came to 80 nM on EGFR (human) [1] and 49 nM against EGFR (human) [2].

Take `Fc1cccc(Cn2ncc3cc(Nc4ncnc5ccc(-n6cccc6)cc45)ccc32)c1`: the IC50 at EGFR (human) [1] amounted to 6 nM; at EGFR (human) [2] it was 80 nM.

For `CCN(CC)CCNC(=O)c1cn(-c2ccc3ncnc(Nc4ccc(OCc5ccccn5)c(Cl)c4)c3c2)cc1CCO`, the IC50 came out at 25 nM at EGFR (human) [1] and 8 nM at EGFR (human) [2].

As to `C[C@@H]1CN(C(=O)Cn2ccc(-c3ccc4ncnc(Nc5ccc(OCc6cccc(F)c6)c(Cl)c5)c4c3)c2)C[C@H](C)N1`, the IC50 on EGFR (human) [1] was 12 nM; against EGFR (human) [2], 771 nM.

As for `O=C(Cn1ccc(-c2ccc3ncnc(Nc4ccc(OCc5cccc(F)c5)c(Cl)c4)c3c2)c1)N1CCC(N2CCCC2)CC1`, the figures for the IC50 at EGFR (human) [1] and against EGFR (human) [2] were 106 nM and 240 nM, respectively.

Take `OCCc1cn(-c2ccc3ncnc(Nc4ccc(OCc5ccccn5)c(Cl)c4)c3c2)cc1CN1CCCCC1`: the IC50 against EGFR (human) [1] was determined as 32 nM; at EGFR (human) [2] it was 3 nM.

In the case of `Fc1cccc(COc2ccc(Nc3ncnc4ccc(-c5ccn(CCN6CCCC6)c5)cc34)cc2Cl)c1`, the IC50 on EGFR (human) [1] stood at 4 nM; against EGFR (human) [2] it was 40 nM.

As to `Fc1cccc(COc2ccc(Nc3ncnc4ccc(-c5ccn(CCCN6CCOCC6)c5)cc34)cc2Cl)c1`, the IC50 on EGFR (human) [1] was found to be 39 nM; against EGFR (human) [2], 1370 nM.

With `O=C(NCCN1CCOCC1)c1cn(-c2ccc3ncnc(Nc4ccc(OCc5cccc(F)c5)c(Cl)c4)c3c2)cc1CCO`, the IC50 against EGFR (human) [1] stood at 20 nM; against EGFR (human) [2], 2360 nM.

Regarding `OC(CN1CCCCC1)Cn1ccc(-c2ccc3ncnc(Nc4ccc(OCc5cccc(F)c5)c(Cl)c4)c3c2)c1` (centres undefined), the IC50 was 21 nM against EGFR (human) [1] and 450 nM at EGFR (human) [2].

Take `O=C(NCC1CCS(=O)(=O)CC1)c1cc(-c2ccc3ncnc(Nc4ccc(OCc5cccc(F)c5)c(Cl)c4)c3c2)c[nH]1`: the figures for the IC50 against EGFR (human) [1] and at EGFR (human) [2] were 116 nM and 706 nM, respectively.

As for `CCN(CC)CC(O)Cn1ccc(-c2ccc3ncnc(Nc4ccc(OCc5cccc(F)c5)c(Cl)c4)c3c2)c1` (centres undefined), the figures for the IC50 on EGFR (human) [1] and against EGFR (human) [2] were 23 nM and 350 nM, respectively.

Turning to `O=C(Cn1ccc(-c2ccc3ncnc(Nc4ccc(OCc5cccc(F)c5)c(Cl)c4)c3c2)c1)N[C@H]1CC[C@H](O)CC1`, the IC50 against EGFR (human) [1] turned out to be 263 nM; against EGFR (human) [2] it was 327 nM.

As to `OCC(O)Cn1ccc(-c2ccc3ncnc(Nc4ccc(OCc5cccc(F)c5)c(Cl)c4)c3c2)c1` (centres undefined), the IC50 stood at 27 nM against EGFR (human) [1] and 1390 nM against EGFR (human) [2].

As to `O=C(Cn1ccc(-c2ccc3ncnc(Nc4ccc(OCc5cccc(F)c5)c(Cl)c4)c3c2)c1)N1CCNCC1`, the IC50 on EGFR (human) [1] came out at 41 nM; against EGFR (human) [2] it was 661 nM.

In the case of `Fc1cccc(Cn2ncc3cc(Nc4ncnc5ccc(-c6ccn(CCN7CCOCC7)c6)cc45)ccc32)c1`, the IC50 at EGFR (human) [1] was found to be 6 nM; against EGFR (human) [2] it was 100 nM.

Take `CS(=O)(=O)CCNCc1ccc(-c2ccc3ncnc(Nc4ccc(OCc5ccccn5)c(Cl)c4)c3c2)[nH]1`: the IC50 amounted to 13 nM at EGFR (human) [1] and 570 nM at EGFR (human) [2].

Turning to `Cc1ccc(Oc2ccc(Nc3ncnc4ccc(-c5cc[nH]c5)cc34)cc2C)cn1`, the IC50 against EGFR (human) [1] was determined as 387 nM; at EGFR (human) [2], 90 nM.

For `O=S1(=O)CCC(CNCc2cc(-c3ccc4ncnc(Nc5ccc6c(cnn6Cc6cccc(F)c6)c5)c4c3)c[nH]2)CC1`, the IC50 on EGFR (human) [1] was found to be 7 nM; at EGFR (human) [2] it was 1100 nM.

On to `CCN(CC)CCn1ccc(-c2ccc3ncnc(Nc4ccc5c(cnn5Cc5cccc(F)c5)c4)c3c2)c1`, for which the figures for the IC50 against EGFR (human) [1] and on EGFR (human) [2] were 6 nM and 1030 nM, respectively.

Regarding `OCCc1cn(-c2ccc3ncnc(Nc4ccc(OCc5cccc(F)c5)c(Cl)c4)c3c2)cc1CN1CCCCC1`, the IC50 stood at 54 nM against EGFR (human) [1] and 220 nM on EGFR (human) [2].

For `O=C(Cn1ccc(-c2ccc3ncnc(Nc4ccc(OCc5cccc(F)c5)c(Cl)c4)c3c2)c1)N1CCC(N2CCCCC2)CC1`, the IC50 against EGFR (human) [1] worked out at 79 nM; on EGFR (human) [2], 295 nM.

On to `CS(=O)(=O)CCNCc1ccn(-c2ccc3ncnc(Nc4ccc(OCc5cccc(F)c5)c(Cl)c4)c3c2)c1`, for which the IC50 at EGFR (human) [1] stood at 50 nM; against EGFR (human) [2] it was 780 nM.

Regarding `Fc1cccc(COc2ccc(Nc3ncnc4ccc(-c5ccn(CCN6CCCCCC6)c5)cc34)cc2Cl)c1`, the IC50 against EGFR (human) [1] turned out to be 27 nM; against EGFR (human) [2], 657 nM.

As for `COCCCN1CCOC(Cn2ccc(-c3ccc4ncnc(Nc5ccc6c(cnn6Cc6cccc(F)c6)c5)c4c3)c2)C1` (centres undefined), the IC50 at EGFR (human) [1] worked out at 291 nM; against EGFR (human) [2] it was 832 nM.

For the compound `CCN(CC)CCNCc1ccc(-c2ccc3ncnc(Nc4ccc(OCc5cccc(F)c5)c(Cl)c4)c3c2)[nH]1`, the results for the IC50 on EGFR (human) [1] and against EGFR (human) [2] were 18 nM and 1450 nM, respectively.

On to `O=C(Cn1ccc(-c2ccc3ncnc(Nc4ccc(OCc5cccc(F)c5)c(Cl)c4)c3c2)c1)N1CCN(CCO)CC1`, for which the IC50 on EGFR (human) [1] and on EGFR (human) [2] was 51 nM in each case.

As to `OC(CN1CCOCC1)Cn1ccc(-c2ccc3ncnc(Nc4ccc5c(cnn5Cc5cccc(F)c5)c4)c3c2)c1` (centres undefined), the IC50 at EGFR (human) [1] was found to be 5 nM; against EGFR (human) [2], 170 nM.

Regarding `O=S1(=O)CCC(O)(CNCc2ccn(-c3ccc4ncnc(Nc5ccc(OCc6cccc(F)c6)c(Cl)c5)c4c3)c2)CC1`, the IC50 against EGFR (human) [1] is 7 nM; at EGFR (human) [2], 30 nM.

Take `Fc1cccc(COc2ccc(Nc3ncnc4ccc(-c5cc(CNCCN6CCOCC6)c[nH]5)cc34)cc2Cl)c1`: the values for the IC50 against EGFR (human) [1] and against EGFR (human) [2] were 8 nM and 240 nM, respectively.

For the compound `OCCn1ccc(-c2ccc3ncnc(Nc4ccc(OCc5cccc(F)c5)c(Cl)c4)c3c2)c1`, the IC50 at EGFR (human) [1] was 52 nM; against EGFR (human) [2], 40 nM.

As for `Fc1cccc(COc2ccc(Nc3ncnc4ccc(-c5ccn(C[C@H]6COCCN6)c5)cc34)cc2Cl)c1`, the figures for the IC50 at EGFR (human) [1] and against EGFR (human) [2] were 79 nM and 562 nM, respectively.

On to `CCN(CC)CC(O)Cn1ccc(-c2ccc3ncnc(Nc4ccc5c(cnn5Cc5cccc(F)c5)c4)c3c2)c1` (centres undefined), for which the IC50 came out at 20 nM on EGFR (human) [1] and 120 nM against EGFR (human) [2].

As to `Fc1cccc(COc2ccc(Nc3ncnc4ccc(-n5cccc5)cc34)cc2Cl)c1`, the concentration for half-maximal inhibition (IC50) was found to be 3 nM against EGFR (human) [1] and 360 nM on EGFR (human) [2].

As to `CCN(CC)C[C@@H](O)Cn1ccc(-c2ccc3ncnc(Nc4ccc5c(cnn5Cc5cccc(F)c5)c4)c3c2)c1`, the concentration for half-maximal inhibition (IC50) against EGFR (human) [1] was 71 nM; at EGFR (human) [2], 390 nM.

In the case of `CS(=O)(=O)CCNCc1cccn1-c1ccc2ncnc(Nc3ccc(OCc4cccc(F)c4)c(Cl)c3)c2c1`, the IC50 against EGFR (human) [1] is 12 nM; against EGFR (human) [2] it was 270 nM.

In the case of `Fc1cccc(COc2ccc(Nc3ncnc4ccc(-c5ccn(CCc6ccncc6)c5)cc34)cc2Cl)c1`, the IC50 on EGFR (human) [1] is 166 nM; against EGFR (human) [2], 874 nM.

On to `CN1CCN(CCNCc2cn(-c3ccc4ncnc(Nc5ccc(OCc6cccc(F)c6)c(Cl)c5)c4c3)cc2C(F)(F)F)CC1`, for which the values for the IC50 against EGFR (human) [1] and against EGFR (human) [2] were 32 nM and 160 nM, respectively.

Turning to `OC(CN1CCN(C2CC2)CC1)Cn1ccc(-c2ccc3ncnc(Nc4ccc(OCc5cccc(F)c5)c(Cl)c4)c3c2)c1` (centres undefined), the IC50 against EGFR (human) [1] was found to be 117 nM; against EGFR (human) [2], 521 nM.

Take `Fc1ccc(Nc2ncnc3ccc(-n4cccc4)cc23)cc1Cl`: the IC50 is 61 nM on EGFR (human) [1] and 70 nM on EGFR (human) [2].

For `CS(=O)(=O)CCNCc1cc(-c2ccc3ncnc(Nc4ccc(OCc5cccc(F)c5)c(Cl)c4)c3c2)c[nH]1`, the results for the IC50 at EGFR (human) [1] and on EGFR (human) [2] were 11 nM and 250 nM, respectively.

In the case of `Fc1ccc(Nc2ncnc3ccc(-c4ccc[nH]4)cc23)cc1Cl`, the IC50 against EGFR (human) [1] was 11 nM; against EGFR (human) [2], 21 nM.

As for `OC(CN1CCC(N2CCCC2)CC1)Cn1ccc(-c2ccc3ncnc(Nc4ccc(OCc5cccc(F)c5)c(Cl)c4)c3c2)c1` (centres undefined), the IC50 against EGFR (human) [1] was found to be 39 nM; at EGFR (human) [2] it was 362 nM.
